These results are taken from ChEMBL document CHEMBL1121455, “N-(alpha-Hydroxyalkanoyl) derivatives of Leu-Val-Phe-OCH3 as inhibitors of renin” (J Med Chem, 1980).

Residues, ends and D or L forms follow the SMILES beside them.

The Ki is the dissociation constant of the complex between target and ligand, obtained from inhibition or displacement. Low values mean a stronger hold on the target, high ones a looser hold on the target.

The test concerns the target T1, Renin (Homo sapiens, UniProt P00797).
T1 sequence (P00797 whole entry): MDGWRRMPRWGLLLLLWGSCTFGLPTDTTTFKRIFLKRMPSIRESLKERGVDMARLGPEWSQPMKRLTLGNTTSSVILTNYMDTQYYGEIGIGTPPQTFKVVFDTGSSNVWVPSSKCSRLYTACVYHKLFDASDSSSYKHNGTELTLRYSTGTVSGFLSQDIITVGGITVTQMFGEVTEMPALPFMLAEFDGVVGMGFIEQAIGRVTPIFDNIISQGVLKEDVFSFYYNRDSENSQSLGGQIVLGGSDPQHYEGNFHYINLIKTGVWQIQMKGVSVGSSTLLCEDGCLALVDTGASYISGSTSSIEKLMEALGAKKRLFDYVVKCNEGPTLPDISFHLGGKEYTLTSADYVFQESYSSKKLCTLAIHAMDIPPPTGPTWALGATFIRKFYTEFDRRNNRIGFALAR
Put plainly: Inhibition of human amniotic renin was tested and determined by Dixon plots.
In the case of `COC(=O)[C@H](Cc1ccccc1)NC(=O)[C@@H](NC(=O)[C@H](CC(C)C)NC(=O)[C@@H](O)CC(C)C)C(C)C`, the Ki came to 230 µM.

In turn, `COC(=O)[C@H](Cc1ccccc1)NC(=O)[C@@H](NC(=O)[C@H](CC(C)C)NC(=O)[C@@H](O)C(C)C)C(C)C` returned a Ki of 300 µM.

For `COC(=O)[C@H](Cc1ccccc1)NC(=O)[C@@H](NC(=O)[C@H](CC(C)C)NC(=O)[C@H](O)c1ccccc1)C(C)C`, the Ki was found to be 980 µM. This Ki is about 3.3-fold higher than that of the compound before.

Regarding `COC(=O)[C@H](Cc1ccccc1)NC(=O)[C@@H](NC(=O)[C@H](CC(C)C)NC(=O)[C@@H](O)c1ccccc1)C(C)C`, the inhibitory constant (Ki) was 530 µM.

Compound `COC(=O)[C@H](Cc1ccccc1)NC(=O)[C@@H](NC(=O)[C@H](CC(C)C)NC(=O)[C@H](O)CC(C)C)C(C)C` displayed a Ki of 600 µM. The Ki values of the last two compounds are within 1.5-fold of each other.

Consider `COC(=O)[C@H](Cc1ccccc1)NC(=O)[C@@H](NC(=O)[C@H](CC(C)C)NC(=O)[C@H](O)C(C)C)C(C)C`, for which the Ki amounted to 1780 µM.

Take `COC(=O)[C@H](Cc1ccccc1)NC(=O)[C@@H](NC(=O)[C@H](CC(C)C)NC(=O)[C@@H](N)CC(C)C)C(C)C` (HELM PEPTIDE1{L.L.V.F.[CO[*:1]]}$$$$V2.0): the affinity, expressed as Ki, was 1140 µM.

On to `COC(=O)[C@H](Cc1ccccc1)NC(=O)[C@@H](NC(=O)[C@H](CC(C)C)NC(=O)[C@@H](O)Cc1ccccc1)C(C)C` (HELM PEPTIDE1{[O=C([C@@H](O)Cc1ccccc1)[*:2]].L.V.F.[CO[*:1]]}$$$$V2.0), for which the affinity, expressed as Ki, was 670 µM.
